The results in this text go back to patent US11910794B2, “Solutions and methods for long-term pollen storage” (Monsanto Technology LLC, priority 2021, dated 2024).

One data set has as its system corn pollen. The data set can be described thus: Pollen toxicity: germination of corn pollen after incubation in pollen storage solutions. In kind it is cell-based, corn (Zea mays). The note with it: 1.0M sucrose, 10 mM MES, 0.5M, 1.0M or 1.5M cryoprotectant; 15 minutes at room temperature or 4° C.; germination plates; FIG. 1.
For data set [1], the system named is pollen. The note with it: not told.
Method: (§1) As used herein the term “impermeable” refers to a state where an isotonic solution of the solute when first mixed with pollen produces less than about 10% pollen lysis over the first 4 hours that the pollen is in contact with the solution. As used herein the term “permeable” refers to a state where an isotonic solution of the cryoprotectant when first mixed with pollen produces greater than 50% pollen lysis over the first 4 hours that the pollen is in contact with the solution.
(§2) The pollen permeability of numerous cryoprotectants was evaluated to initially identify suitable candidates for use in the pollen storage solution. Suitable cryoprotectants will be permeable to the pollen in the solution. Suitable solutes will maintain the tonicity of the pollen storage solution at a concentration between about 0.5M and about 3.0M. […] Pollen storage solutions comprising 1.0M sucrose, 10 mM MES, and 0.5M, 1.0M, or 1.5M of cryoprotectant were evaluated for pollen toxicity.
Data set [2] relates to pollen. The data set can be described thus: Pollen permeability of cryoprotectants. The note with it: permeability test of cryoprotectants.
Method: as §1, §2

SMILES strings stand for the structures. Like-named read-outs stand apart in the source and are kept apart here.

Method for corn pollen: Pollen storage solutions comprising 1.0M sucrose, 10 mM MES, and 0.5M, 1.0M, or 1.5M of cryoprotectant were evaluated for pollen toxicity. Briefly, corn pollen was suspended in each pollen storage solution at either room temperature or 4° C. and incubated for 15 minutes. The pollen storage solutions were applied to standard germination plates using an airbrush and images of the plates were obtained to evaluate germination. A 1.0M solution of sucrose was used as the positive control.

Turning to `C[S+](C)[O-]` [DMSO, dimethyl sulfoxide], the germination rates result with corn pollen is recorded as “highest germination rates”. Also, the “pollen permeability of cryoprotectant” value in the data set with pollen [1] is “among the most permeable”.
On to `OCCO` [ethylene glycol], for which the germination rates entry in the data set with corn pollen is “highest germination rates”. In addition, the “pollen permeability of cryoprotectant” value in the data set with pollen [2] was “among the most permeable”.
